Experimental data published in PMC9964544, “Evidence of Insulin-Sensitizing and Mimetic Activity of the Sesquiterpene Quinone Avarone, a Protein Tyrosine Phosphatase 1B and Aldose Reductase Dual Targeting Agent from the Marine Sponge Dysidea avara” (Pharmaceutics, 2023).
“Also recorded” adds a separate entry of the source.

Experiments:
[1] = molecular target: T1, Human PTP1B (Homo sapiens, UniProt P18031); assay: PTP1B inhibition assay with pNPP as substrate (IC50); format: biochemical; parameters: polyHis (N); made in house; settings: 2.5 mM pNPP, 37 °C; IC50 ± SD
T1 sequence (P18031 1-302): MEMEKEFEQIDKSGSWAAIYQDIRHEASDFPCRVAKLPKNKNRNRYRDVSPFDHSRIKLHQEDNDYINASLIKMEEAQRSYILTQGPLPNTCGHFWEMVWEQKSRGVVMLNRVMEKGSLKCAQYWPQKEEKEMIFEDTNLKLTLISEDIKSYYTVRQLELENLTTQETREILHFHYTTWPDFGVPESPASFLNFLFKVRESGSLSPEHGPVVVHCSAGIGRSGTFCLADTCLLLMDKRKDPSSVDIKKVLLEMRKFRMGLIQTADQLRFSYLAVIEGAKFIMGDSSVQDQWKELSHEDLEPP
Method: The purification of human recombinant AKR1B1 was performed as previously described. […] The purified enzyme, stored at −80 °C in 10 mM sodium phosphate buffer pH 7.0 containing 2 mM DTT and 30% (w/v) glycerol, was extensively dialyzed against 10 mM sodium phosphate buffer pH 7.0 before use. […] The fractions containing PTP1B were collected, concentrated, and injected into a Superdex G75 column equilibrated with Tris-HCl buffer pH 8.0 containing 150 mM NaCl and 1 mM mercaptoethanol. The fractions containing PTP1B were collected and concentrated; the purity of preparation was evaluated using SDS-PAGE. The PTP1B preparation was split into fractions of 0.5 mL volume; each fraction was stored at −80 °C.
The standard assay mixture (final volume 0.7 mL) was contained in 0.25 M sodium phosphate buffer pH 6.8, 0.18 mM NADPH, 0.4 M ammonium sulfate, 0.5 mM EDTA, and 4.7 mM GAL. One unit of enzyme activity is the amount of enzyme that catalyzes the conversion of 1 µmol of substrate/min in the above assay conditions. The same assay conditions were adopted in the inhibition studies using L-idose as the substrate at the indicated concentrations. PTP1B activity was determined using p-nitrophenylphosphate (pNPP) as the synthetic substrate. The pNPP was dissolved in 0.075 M ββ-dimethylglutarate buffer, pH 7.0, containing 1 mM dithiothreitol. Each assay was carried out at 37 °C in 1 mL of assay buffer. The reactions were started by diluting an aliquot of PTP1B preparation in the assay buffer; after 30 min, the reactions were stopped by adding 2 mL of 0.2 M KOH solution. The amount of p-nitrophenol released was determined spectrophotometrically, reading the absorbance of solutions at 400 nm (ε400nm = 18 mM^−^1cm^−^1).

[2] = tested on: human leukemia monocytic cells (THP-1); parameters: method as in PMID 32075136; settings: ref [19]; cited from earlier work
[3] = tested on: human microvascular endothelial cells (HMEC-1); parameters: method as in PMID 32075136; settings: ref [19]; read-out: IC50 cytotoxicity HMEC-1; cited from earlier work
[4] = tested on: C2C12 cells; assay: Glucose uptake assay (2-NBDG, flow cytometry) in C2C12 cells; format: cell-based; settings: 30 min
Method: To evaluate the impact of avarone (2) on the insulin signaling pathway, C2C12 cells were plated on P35 dishes and grown until 70% confluence. Then, cells were washed with phosphate-buffered saline (PBS) and incubated for 24 h in the presence of a starvation medium (DMEM high glucose containing 2 mM glutamine, 100 U/mL of penicillin, and 100 μg/mL of streptomycin). After this time, cells were stimulated for 30 min with 10 nM insulin (Humulin R, Ely Lilly, Italy) with avarone (2) or the insulin-avarone combination. After this time, cells were washed with cold PBS and lysed using 100 µL of 1X Laemmli sample buffer solution (50 mM Tris-HCl pH 6.8, 2% SDS, 10% glycerol, 1% β-mercaptoethanol, 12.5 mM EDTA, 0.02% bromophenol blue). Cell proteins were withdrawn, transferred in an Eppendorf tube and boiled for 5 min. All samples were stored at −20 °C before the analysis. Analysis of samples was carried out using SDS-PAGE; after electrophoresis, proteins were transferred on a PVDF membrane by Western blot. Phosphorylation levels of the insulin receptor β chain and of the kinase Akt were evaluated using specific antibodies: IR β subunit, clone CT-3 (MABS65) was from Santa Cruz Biotechnology (Santa Cruz, CA, USA); pIR β subunit, Y1162/1163 (sc-25103-R) was from Merck-Millipore (Burlington, MA, USA). Akt (9272S) and p-Akt (9271S) antibodies were from Cell Signaling Technology (Danvers, MA, USA). Finally, β-actin and clone C-4 (sc-47778) were from Merck-Millipore (Burlington, MA, USA). Anti-rabbit and anti-mouse secondary antibodies were from Santa Cruz Biotechnology (Santa Cruz, CA, USA). Detection was performed using Clarity western ECL substrates (BioRad Laboratories, Inc. 1000 Alfred Nobel DriveHercules, CA, USA). Quantitation of the images obtained was carried out using iBright Analysis Software (Thermo Fisher Scientific 168 Third Avenue Waltham, MA, USA, 02451). Glucose uptake was evaluated as previously described. […] Intrinsic and 2-NBDG-derived cell fluorescences were determined using a flow cytometer (FACSCanto II, BD Biosciences, San Jose, CA, USA). […] Quantitative analysis was carried out using FlowJo software (FlowJo^TM v10. BD FlowJo™ Software for Windows Version 10. Ashland, OR: Becton, Dickinson and Company; 2021).
Figure 8 Glucose uptake assay. […] After, cells were washed with PBS, detached using trypsin, collected by centrifugation, and analyzed using a flow cytometer (FACSCanto II, BD Biosciences). […] For each experiment, 10,000 events were analyzed. […] (B) Quantitation of fluorescence levels. […]
Figure 9 Impact of cytochalasin B on avarone-induced glucose uptake. […] After, cells were washed and incubated for 3 h with 40 µM 2-NBDG and then analyzed using a flow cytometer (FACSCanto II, BD Biosciences). For each experiment, 10,000 events were analyzed. […]

IC50 [1]: 6.7 ± 0.6 µM
SMILES: CC1=CCC[C@H]2[C@](C)(CC3=CC(=O)C=CC3=O)[C@@H](C)CC[C@]12C [avarone (2), avarone]
cytotoxicity THP-1 [2]: not cytotoxic
IC50 [3]: 62.2 µM
glucose uptake (2-NBDG fluorescence), insulin-avarone combination ([4]; 25 µM avarone + 10 nM insulin, versus insulin alone): significantly increase
glucose uptake (2-NBDG fluorescence) ([4]; 25 µM avarone alone, then 40 µM 2-NBDG 3 h): higher amounts of fluorescent glucose; also recorded: stimulates glucose uptake more efficiently than insulin itself
